The values that follow come from patent US7807411B2, “Genetically encoded fluorescent coumarin amino acids” (The Scripps Research Institute, priority 2006, dated 2010).

Data set [1] in a line: Absorption and emission spectra of the coumarin amino acid. To be noted: phenolate form, pH 7.4, 100 mM sodium phosphate buffer. The format is physicochemical. As to the method:
FIG. 2 provides absorption and emission spectra of L-(7-hydroxycoumarin-4-yl)ethylglycine. Both spectra were recorded at pH 7.4, 100 mM sodium phosphate buffer. At this pH, L-(7-hydroxycoumarin-4-yl)ethylglycine is present in both phenol and phenolate forms (in approximately a 2:1 ratio). The phenolate form has an extinction coefficient of 17000 at […] and a quantum yield of 0.63.

Data set [2] can be described thus: pH sensitivity of the absorption spectrum (pKa determination). The format is physicochemical. The following applies: 60 μM in 100 mM sodium phosphate buffer, calculated from absorbance at 360 nm versus pH. On the procedure: FIG. 7 provides an absorption spectrum of 60 μM coumarinyl amino acid L-(7-hydroxycoumarin-4-yl)ethylglycine in 100 mM sodium phosphate buffer.
The absorption spectrum of 60 μM coumarinyl amino acid 7-hydroxycoumarin-ethylglycine was measured in 100 mM sodium phosphate buffer. The absorbance of 360 nm increased while pH increased.

Data set [3] concerns amber codon in the chloramphenicol acetyl transferase (CAT) gene. Nature of the data set: Chloramphenicol survival of synthetase clones (amber suppression in CAT gene). The format is cell-based, E. coli. To be noted: 60 hours at 37° C., GMML-agar. As to the method:
Subsequently, this library was subjected to rounds of both positive and negative selections. In the positive selection, cell survival is dependent on the suppression of an amber codon introduced at a permissive site in the chloramphenicol acetyl transferase (CAT) gene when cells co-transformed with pBK-lib and MjtRNA^TyrCUA are grown in the presence of 1 mM unnatural amino acid (UAA) and chloramphenicol (Xie and Schultz, Methods (2005) 36:227-238). Positively selected clones are then transformed into cells containing MjtRNA^TyrCUA and a gene encoding the toxic barnase protein with three amber mutations introduced at permissive sites. These cells are grown in the absence of UAA to remove any clones that utilize endogenous amino acids (negative selection). These positive and negative selection are described in detail below.
Positive Selection—E. coli DH10B harboring the pREP(2)/YC plasmid was used as the host strain for the positive selection. Cells were transformed with the pBK-lib5 library, recovered in SOC for 1 hour, washed twice with glycerol minimal media with leucine (GMML) before plating on GMML-agar plates supplemented with kanamycin, chloramphenicol, tetracycline and 7-hydroxycoumarin-ethylglycine at 50 μg/mL, 60 μg/mL, 15 μg/mL and 1 mM respectively. […]

As a reminder, the pKa is the pH at which an ionisable group is half protonated. In data set [1] (at 360 nm), `N[C@@H](CCc1cc(=O)oc2cc(O)ccc12)C(=O)O` [L-(7-hydroxycoumarin-4-yl)ethylglycine] returned an extinction coefficient of 17000 M⁻¹ cm⁻¹. The molecule also registered a quantum yield in data set [1] of 0.63. In data set [2], the pKa is reported as 7.8.

B1: CouRS-D8 (protein)
chain: MDEFEMIKRNTSEIISEEELREVLKKDEKSAEIGFEPSGKIHLGHYLQIKKMIDLQNAGFDIIIHLGDLGAYLNQKGELDEIRKIGDYNKKVFEAMGLKAKYVYGSEYHLDKDYTLNVYRLALKTTLKRARRSMELIAREDENPKVAEVIYPIMQVNGIHYGGVDVAVGGMEQRKIHMLARELLPKKVVCIHNPVLTGLDGEGKMSSSKGNFIAVDDSPEEIRAKIKKAYCPAGVVEGNPIMEIAKYFLEYPLTIKRPEKFGGDLTVNSYEELESLFKNKELHPMDLKNAVAEELIKILEPIRKRL
modifications: L-(7-hydroxycoumarin-4-yl) ethylglycine aminoacyl-tRNA synthetase
As to B1, the figures for the “chloramphenicol concentration at which the clone survives” value in data set [3] (in the absence of 7-hydroxycoumarin-ethylglycine) and in data set [3] (in the presence of 1 mM 7-hydroxycoumarin-ethylglycine) were 20 µg/mL and 100 µg/mL, respectively.
